Reference: patent publication US20080318891A1, “Antisense oligonucleotides against thymidylate synthase” (priority 1998, published 2008)

System: TS protein
Test: TS binding assay ([6-3H]5-FdUMP binding) in HeLa cell lysates
Assay type: cell-based, human
Conditions: HeLa cells, different times following transfection
Method: 5-FdUMP binding was measured in cells transfected with ODN 83 (hatched bars) or ODN 32 (open bars) at different times following transfection. (A) Results are plotted as a percent of 5-FdUMP binding in cells transfected with control ODN 32±SE (n=5). The values for ODN 32 (n=5) were normalized to 100% and are shown without error bars. […] Error bars indicate errors calculated according to a Student t-test, and indicate error due to differences in experimental conditions in 5 measurements taken on different days, and differences due to transfection with different ODNs. The asterisks indicate significant differences (p<0.02) determined by using a paired Student t-test.
TS binding assay: Cellular content of TS was assayed by binding of [6-^3H]5-FdUMP. […] The assay was performed using cells that were treated with antisense ODN 83 or the scrambled control ODN 32. Briefly, cells were harvested by scraping into PBS and resuspending the subsequent pellet in 100 mM KH2PO4 (pH 7.4). […] The total protein concentration was determined using Coomassie staining (BioRad reagent) (MI) in order to express results as pmol 5-FdUMP bound per mg total protein. 5-FdUMP binding was assessed in paired lysates from cells transfected with ODN 83 or ODN 32, in separate incubation reactions carried out on different days; however, pairs were always assessed together under the same reaction conditions. […]

ODN 32: scrambled control, randomised sequence of ODN 83, 5′-ATGCGCCAACGGTTCCTAAA-3′ (all phosphorothioate, sugars by position and methylation of C not given here; further chemistry not fully specified) [reference compound]
TS protein levels (inferred by 5-FdUMP binding): no significant effect
